Source: a melting point compilation (Tetko et al.; mined from patent text by program, amines drawn as free bases though some values may be those of a salt)

Row | Structure (SMILES) | melting point
1 | CCOC(=O)c1cnc(Nc2ccc(-n3cnc(C)c3)c(OC)c2)nc1-c1ccc(Cl)cc1 | 216 to 218 °C
2 | COc1ccccc1N1CCN(CC(O)COc2cccc3c2CCCC3=O)CC1 (stereo not given) | 120 °C
3 | C#CCc1c(Cl)nc(NC=O)nc1Cl | 127 to 128 °C
4 | CNc1nc(Nc2ccc(Cl)cc2F)ncc1N1CCNC1=O | 249 °C
5 | Cc1noc(NS(=O)(=O)c2ccsc2C(=O)Nc2cccc(C(=O)O)c2)c1Br | 183 to 185 °C
6 | COC1=C2C(=C(C(C)C)CC1(C)OC)C(=O)N(CSc1nnnn1-c1ccccc1)S2(=O)=O (stereo not given) | 169 to 171 °C
7 | Cc1ccc(OCc2c(F)cccc2Cl)c(NC(=S)Nc2ccc(Cl)cc2)n1 | 204 to 205 °C
8 | N#Cc1c(NC(=O)CO)cccc1N1CCCCC1 | 121 to 124 °C
9 | COc1cn(C)c(=O)c(N)n1 | 166 to 167 °C
10 | Cc1nc2ccccc2n1-c1ccc(I)cc1 | 136 to 137 °C
11 | O=C(O)c1cn(-c2ccc(F)cc2F)c2cc(N3CCC4(C3)OCCCO4)c(F)cc2c1=O | 168 to 170 °C
12 | O=C1CN=C(c2ccc(O)cc2)c2cc(Cl)ccc2N1 | 271 to 272 °C
13 | CC(=O)N1CCN=C1Nc1c(C)c(C)nn1C | 212 to 215 °C
14 | CCCCCS(=O)(=O)NC(=O)c1ccc2sc(C)c(Cc3ccc(Cl)cc3Cl)c2c1 | 158 to 159 °C
15 | COC(=O)c1cc(C(=O)NN2CCOCC2)c2cc(Cc3ccc(F)cc3)cnc2c1O | > 250 °C
16 | O=C(O)C1CCC(O)CC1 (stereo not given) | 110 to 130 °C
17 | O=C(Nc1ccccc1)C(CBr)CBr | 143 to 144 °C
18 | CC1OC(=O)c2c(S)cccc21 (stereo not given) | 40 °C
19 | NC(=O)c1n[nH]c(S(=O)(=O)c2ccccc2)n1 | 150 to 153 °C
20 | CC(=O)N[C@@H]1c2ccccc2C[C@@H]1C (relative stereo) | 146 to 147 °C
21 | Cc1nc2ccccc2nc1S(=O)Cc1ccccn1 (stereo not given) | 85 to 88 °C
22 | COc1ccc(N2CCN(C3CCNCC3)C2=O)cc1 | 140 °C
23 | O=C(Cc1ccccc1)c1cccnc1 | 61 to 62 °C
24 | CC#CCn1nnc2cc3c(=O)n(C(C)Cn4ncnn4)nnc3cc2c1=O (stereo not given) | 132 to 134 °C
25 | CNS(=O)(=O)Cc1ccc2[nH]cc(CCN)c2c1 | 179 to 181 °C

Row | Structure (SMILES) | melting point
26 | COc1cc2c(cc1OC)C1(CCC(=O)NC1=O)CCC2=O (stereo not given) | 269 to 271 °C
27 | CCOc1cc(C#N)ccc1C(=O)Nc1cc(Cl)c(Cl)cc1N | 195 to 198 °C
28 | C=C(F)C(=O)Oc1c(Cl)cc(C#N)cc1Cl | 95 to 99 °C
29 | CC(C)(C)OC(=O)N1CCC=C(Cc2cn(S(=O)(=O)c3ccccc3)c3ccc(F)cc23)C1 | 63 to 65 °C
30 | Cc1nc(-n2[nH]c(C)c(Cc3ccc(Cl)cc3)c2=O)sc1C(=O)NCc1cccnc1 | 215 to 217 °C
31 | O=C1C=C(NC2CCN(Cc3ccccc3)CC2)CCC1 | 171 to 172 °C
32 | CCCOc1ccccc1-c1nc2ccccc2c(=O)[nH]1 | 88 to 89 °C
33 | O=C(Nc1ccc(F)cc1)NC1CCN(S(=O)(=O)c2ccc(Cl)cc2)CC1 | 160 to 162 °C
34 | CCOC(=O)/C(N)=C/C(=O)/C=C/c1ccc(Cl)cc1F | 102 to 103 °C
35 | COc1cccc(SCCC(=O)O)c1F | 72 to 74 °C
36 | NS(=O)(=O)c1cccc(C2(O)CCCC2)c1 | 155 °C
37 | CC(=O)NCc1ccc(C(C)N2CCN(c3ccc(F)cc3)CC2)cc1 (stereo not given) | 128 to 130 °C
38 | Nc1ccc(NCC(F)(F)F)c([N+](=O)[O-])c1 | 104 to 106 °C
39 | O=S(=O)(c1cc(Cl)ccc1O)N1CCCC1 | 101 to 102 °C
40 | CC(C#N)=C1CCN(c2ccc(N3C[C@@H](CNNCC(=O)O)OC3=O)cc2F)CC1 | 141 to 142 °C
41 | CC(C)(C)C(C)(O)C(Cn1cncn1)Oc1ccc(Cl)cc1 (stereo not given) | 150 °C
42 | Cc1nc2cccc(OCC(C)(C)NC(=O)c3ccncc3)c2c(N)c1C(=O)O | 195 to 198 °C
43 | COc1ccc(C2CC(=O)CC(c3ccc(OC)cc3)N2C)cc1 (stereo not given) | 129 to 130 °C
44 | CCCCc1oc2ccccc2c1C(=O)NCc1ccc2c(-c3ccc(OC)cc3)c(OCC#N)ccc2c1 | 139 to 142 °C
45 | CN(C)Cc1nnc2n1-c1sc(Cl)cc1C(c1ccccc1[N+](=O)[O-])=NC2 | 234 to 236 °C
46 | CSc1cnn2c(Nc3ccc(F)c(Cl)c3)cc(Cl)nc12 | 156 to 158 °C
47 | CC(C(=O)OC(C)(C)C)C(C)(O)c1ccc(Cl)nc1NC(=O)C(C)(C)C (stereo not given) | 146 to 148 °C
48 | COc1ccc(C=CC(=O)N2CCN(c3nc(N)c4cc(OC)c(OC)cc4n3)CC2)cc1 | 265 to 267 °C
49 | N#CC(=Cc1ccc(CBr)cc1)S(=O)(=O)c1ccccc1 | 120 to 122 °C
50 | CC1(C)OC(=O)C(Oc2ccccc2)=C1c1ccc(S(C)(=O)=O)cc1 | 135 to 136 °C

Row | Structure (SMILES) | melting point
51 | COc1ccc(-c2nc(CCCCCc3nnn[nH]3)oc2-c2ccc(OC)cc2)cc1 | 150 °C
52 | N#Cc1ccc(OCCCc2cn(C(c3ccccc3)(c3ccccc3)c3ccccc3)cn2)cc1 | 187 to 188 °C
53 | CCOC(=O)c1cn(-c2ccccc2)c2oc(CN3CCOCC3)cc2c1=O | 210 to 212 °C
54 | CCOC(=O)C1=C(C(=O)OCC)C(c2cccc3ccccc23)C(C(=O)OCC)=C(C)N1 (stereo not given) | 112 °C
55 | O=S(=O)(O)CCc1cccnc1 | 275 to 278 °C
56 | CCCCc1nc(S(=O)(=O)c2ccccc2)c(C(=O)O)n1Cc1ccc(-c2ccccc2C(=O)O)cc1 | 140 °C
57 | COc1cc(N)c(Cl)cc1C(=O)NC1CC2CCCCN2C1 (stereo not given) | 192 to 193 °C
58 | CCCCOc1cc2cc(CO)c(CO)c(-c3ccnc(NN)c3)c2cc1OC | 93 to 97 °C
59 | CN(C(=O)c1cccc(S(=O)(=O)N(C)c2ccc(S(C)=O)cc2)c1)c1ccc(Cl)cc1F (stereo not given) | 104 to 106 °C
60 | CNS(=O)(=O)c1ccc(-c2ccc3oc(C4CCN(C(=O)OC(C)C)CC4)nc3c2)cc1 | 179 to 181 °C
61 | O=C1C(O)N=C(c2ccccc2F)c2ccccc2N1C1CCNCC1 (stereo not given) | 190 to 192 °C
62 | O=C1c2ccccc2C(=O)N1OCCCN1CCN(c2cccc(Cl)c2)CC1 | 140 to 142 °C
63 | O=C1Nc2ccc(Cl)cc2C1(c1ccccc1)c1ccccc1 | 281 °C
64 | NS(=O)(=O)c1ccc(-c2c(-c3ccccc3)noc2CC(=O)O)cc1 | 61 °C
65 | CCCN1C(=O)C(NC(=O)C(N)Cc2ccccc2)N=C(N2CCN(C)CC2)c2ccccc21 (stereo not given) | 152 to 153 °C
66 | CC(C)Oc1c(Br)c(Br)n(Cc2ccccc2)c1C(=O)Nc1nnn[nH]1 | 199 to 205 °C
67 | O=C1N(Cc2ncccc2C(F)(F)F)c2ccccc2C12COc1cc3[nH]ncc3cc12 (stereo not given) | 152 to 154 °C
68 | O=C(O)c1csc(-c2ccc(Cl)cc2)n1 | 189 to 190 °C
69 | CON=C1CN(c2cc3c(cc2F)c(=O)c(C(=O)O)cn3-c2ccc(F)cc2F)CC12CN(C(=O)OC(C)(C)C)C2 | 263 to 264 °C
70 | COc1ccc(C2=C(OC(C)=O)C(=O)Nc3ccc(Cl)cc3S2)cc1 | 236 to 238 °C
71 | CCn1nc(-c2ccccc2)c(C(C)=O)c(N)c1=O | 151 to 153 °C
72 | CC1(C)Cc2cccc(OCCNCc3cccc(C4=C(F)CCC4)c3)c2O1 | 145 °C
73 | COC1=CC(=O)C(OC)=C(CCCCCC2=C(OC)C(=O)C(C)=C(OC)C2=O)C1=O | 48 to 49 °C
74 | O=[N+]([O-])c1cccc(-c2cc3c(O)ncnc3o2)c1 | > 300 °C
75 | CNC(=O)c1cnn(C2(C)CCCC2)c1C#N | 139 to 141 °C

Row | Structure (SMILES) | melting point
76 | CC12CCC(C(=O)N(CCCCN3CCN(c4ncccn4)CC3)C1=O)C2(C)C (stereo not given) | 92 to 94 °C
77 | CCC(=O)N1CCN(c2n[nH]c3ncnc(Nc4cccc(Cl)c4)c23)CC1 | 247 to 250 °C
78 | O=C(O)c1cn(C2CC2)c2c(F)c(N3C[C@H](CF)[C@H](NC(=O)C(F)(F)F)C3)c(F)c(F)c2c1=O (relative stereo) | 283 to 284 °C
79 | CC(=O)OC1N=C(c2ccccc2F)c2cc(Cl)ccc2-n2c1cnc2C (stereo not given) | 201 to 202 °C
80 | COC(=O)CCC/C=C(/c1ccc(OC)c(C(=O)OC)c1)c1cc(C)c2oc(=O)n(C)c2c1 | 134 to 135 °C
81 | COCC(NC(C)=O)C(=O)NCc1ccccc1 (stereo not given) | 142 to 143 °C
82 | Cc1ccccc1Cn1cnc(C#N)c1C#N | 80 to 81 °C
83 | N#CC(OC1OC2C(Br)C3CC1C2C3)c1cccc(Oc2ccccc2)c1 (stereo not given) | 65 °C
84 | CCc1cc(NC(=O)N2CCc3cc(OC)c(C(F)(F)F)cc32)cc(-c2cccnc2)c1 | 205 to 207 °C
85 | CCOc1ccc(-c2ccc3c(c2)C=C(C(=O)Nc2ccc(CCl)cc2)CCO3)cc1 | 187 to 189 °C
86 | CCc1oc2ccccc2c1C(=O)c1ccc(OCC(=O)O)cc1 | 172 to 175 °C
87 | O=C1c2c(O)ccc(O)c2C(=O)c2c(NCCNCCO)ccc(NCCNCCO)c21 | 175 to 177 °C
88 | CCOC(=O)c1cnc2c(F)c(F)ccc2c1 | 118 °C
89 | COc1cccc(Cc2ccc(-c3cnn4c(O)ccnc34)cc2)c1 | 246 to 249 °C
90 | OC1CC=CCC1N1CCN(C2CC=CCC2O)CC1 (stereo not given) | 207 to 209 °C
91 | CN1NC(Oc2cc(F)ccc2[N+](=O)[O-])=CC1C(F)(F)F (stereo not given) | 68 to 70 °C
92 | CCOC(=O)C1(C(=O)OCC)CCC2(NCCc3cc(OC)c(OC)cc32)C(C2=NCCc3cc(OC)c(OC)cc32)C1 (stereo not given) | 116 to 118 °C
93 | Fc1ccc(Cn2c(NC3CCN(CCSc4ncccn4)CC3)nc3ccccc32)cc1 | 146 to 148 °C
94 | COCOc1cc(F)ccc1-c1cc(-c2cccc(C(=O)OC)c2)c(C#N)c(N)n1 | 155 to 158 °C
95 | Clc1nnccc1-c1c(-c2ccccc2)nn2ccccc12 | 208 to 210 °C
96 | CC(=O)On1cnc2c(Br)csc2c1=O | 159 to 162 °C
97 | CCOC(=O)c1ccc(N2CCN(Cc3c[nH]c4ncccc34)CC2)cc1 | 196 to 197 °C
98 | CCn1c(=O)c(-n2c(C(N)=O)nnc2-c2ccc(C#N)cc2)c(C)n(-c2cccc(C(F)(F)F)c2)c1=O | 256 °C
99 | Cc1ccccc1C(=O)Nc1ccc2oc3c(c2c1)CCCC3 | 209 to 210 °C
100 | CN(C)C(=O)c1nc(Cl)c(Cl)[nH]1 | 245 °C
